Data: patent publication US20240409902A1, “SYSTEMS AND METHODS FOR CULTURING PODOCYTES AND USES THEREOF” (Washington University, priority 2021, published 2024)
Entries after “also recorded” stand apart in the source; their conditions may differ.

Tests used:
primary mouse podocytes = assay: Cell relaxation and strain mapping with microbead-embedded hydrogels after CytoD; assay type: cell-based
Experimental: Fluorescent microbeads with a diameter of 0.2 μm (Invitrogen, F8801) were added to the hydrogel's pre-cross-linking solution with a 1:60 dilution ratio before the cross-linking step. After solidification, hydrogels were used for the strain mapping as reported earlier. Briefly, primary mouse podocytes were isolated as described above, seeded on the hydrogels, and allowed to spread for 24 hours. Next, the cells were transferred to a live-imaging chamber before adding CytoD to the culture medium (CytoD, Sigma-Aldrich, 22144-77-0; final concentration, 20 μM). In the final step, the culture medium was changed to 10% SDS to remove the attached cells completely. Cell relaxation and microbead movements were recorded immediately after adding CytoD or 10% SDS, and the strain field was calculated using a strain mapping algorithm that was developed in our previous study.
(§1) For counting and scoring cell phenotypes, imaged podocytes were divided into several categories, including (i) cells with SLSs centrally and in the periphery, (ii) cells with SLSs only in the periphery, (iii) cells with loose striated patterns of synaptopodin and myosin IIA instead of a mat of SLSs (i.e., widely spaced SLSs), and, lastly, (iv) cells without SLSs. For measuring cell length, the longest axis of the cell was determined (mostly along the micropattern direction), and the length was determined through ImageJ (v1.53e with Bio-Formats plugin).

primary podocytes = assay: Myosin II inhibition with blebbistatin: sarcomere-like structures (SLSs) in primary podocytes, immunostained for synaptopodin and myosin IIA; assay type: cell-based, mouse
Experimental: After spreading, cultured podocytes on the hydrogels or glass were fixed in 4% paraformaldehyde (Electron Microscopy Sciences, 15712) for 10 min at room temperature followed by washing with 1×PBS, three times for 6 min each, and then permeabilized using 0.05% Triton X-100 for 10 min at room temperature. Next, samples were blocked using 2% bovine serum albumin (Sigma-Aldrich, A7906) for 30 min at room temperature before applying the primary antibodies overnight at 4° C. Next, samples were washed with 1×PBS, three times for 6 min each before incubating them with the secondary antibodies in PBS for 1 hour at room temperature. Last, the samples were washed in 1×PBS, three times for 6 min, and prepared for mounting using Invitrogen Slow Fade mounting medium (Invitrogen, S36917). The cover glass holding the sample (hydrogel and cells) was bonded to a second cover glass using nail polish. The primary antibodies used were myosin IIA (BioLegend, 909801, rabbit anti-mouse), myosin IIA (Abnova, clone 3C7, mouse anti-human, NH2-terminus), synaptopodin (Synaptic Systems, 163004, guinea pig anti-mouse), laminin α5 [clone 4C7, mouse anti-human], fibronectin (Sigma-Aldrich, F3648, rabbit anti-human), collagen IV (SouthernBiotech, 1340-01, goat anti-human), nephrin (R&D Systems, AF3159, goat anti-mouse), and α-SMA (Invitrogen, 14-9760-82). Alexa Fluor 555 phalloidin (Thermo Fisher Scientific, A34055) was used for actin staining. For mouse myosin antibodies (clone 3C7), samples were antigen retrieved in TE (Tris-EDTA) buffer (pH 9.0) at 65° C. for 4 hours before the permeabilization step.
Blebbistatin (EMD Millipore, 203389-5) was used to inhibit the function of myosin II in the podocytes. […] After 2 hours of treatment, the samples were washed with PBS and immediately fixed and stained as mentioned above.
Sarcomeric structures were measured using ImageJ (v1.53e with Bio-Formats plugin). Briefly, fluorescence intensity maps were acquired by plotting the intensity along a line drawn perpendicular to the sarcomere structure. For the histogram, the spacing of each sarcomere is calculated by recording the peak location in the intensity map, and n for each group represents the total sarcomere number calculated in that group. For averaged sarcomeric spacing, the mean values were calculated for each intensity map (i.e., each stress fiber that is no less than 6 μm long), while n for each group represents the number of stress fibers analyzed in that group.
as §1

[1] = tested on: podocytes from isolated mouse glomeruli; assay: Glomerular culture and podocyte spreading on ECM-micropatterned hydrogels; assay type: cell-based; conditions: glomeruli cultured 2 days on micropatterned PAAm hydrogels
Source text: To test which micropatterned ECM proteins best support podocytes, mouse glomeruli were isolated and cultured on hydrogels coated with Lam-521, collagen IV, or fibronectin. […] Furthermore, the PAAm hydrogel was coated with Lam-521 and micropatterned protein-free patches onto the substrate using a PDMS stamp that removed Lam-521, leaving an inverse of the previous Lam-521 micropatterns interdigitated with microscale patches of exposed PAAm.
Next, the PDMS stamp was cleaned by sonication (Branson) for 20 min and washed in 50% ethanol solution before drying under nitrogen flow followed by plasma cleaning for 2 min (Harrick Plasma). Last, the PDMS stamp micropattern areas were soaked in different ECM solutions [laminin 521 (50 μg/ml; Biolamina, LN521-05), fibronectin (Corning, 356008), or collagen IV (Corning, 354233) in phosphate-buffered saline (PBS)] and left to set for 1 hour at room temperature.
After air-drying the ECM proteins atop the PDMS stamp, the excess solution was removed, and the stamp was dried further using nitrogen flow. The freshly prepared hydroxyl-PAAm hydrogel was also dried out by treatment with nitrogen flow. […]

## C=C1[C@@H](C)[C@H]2[C@H](Cc3ccccc3)NC(=O)[C@]23[C@H](OC(C)=O)/C=C/[C@@](C)(O)C(=O)[C@@H](C)C/C=C/[C@H]3[C@@H]1O [CytoD, cytochalasin D]
Primary mouse podocytes; 0.9 kPa substrates, 15 min CytoD
  cell length before and after CytoD: most cells elongated along their axes; also recorded: increases in cell length associated with 15 min of CytoD treatment were statistically significant
Primary mouse podocytes; 6 kPa substrates, CytoD
  cell length before and after CytoD: Less, but still significant cell relaxation
Primary mouse podocytes; 6 kPa substrates, CytoD compared with subsequent SDS treatment
  substrate strains associated with treatment: much larger than those associated with subsequent SDS treatment
Primary mouse podocytes; reseeded primary podocytes, CytoD 20 μM, video recording
  cell relaxation after actin disruption: significant cell relaxation

## Cc1ccc2c(c1)C(=O)C1(O)CCN(c3ccccc3)C1=N2 (centres unmarked) [blebbistatin, Blebbistatin]
Primary podocytes; 10 nM blebbistatin, 0.2- or 0.9-kPa hydrogels (FIG. 4F)
  SLS formation: SLSs failed to form; also recorded: caused the loss of SLSs with a lower concentration of blebbistatin
Primary podocytes; 10 nM blebbistatin, 6.0-kPa hydrogels or glass substrates (FIGS. 4F and G), listed as Blebb
  SLS formation and sarcomeric spacing: myosin inhibition led to wider sarcomeric spacing
Primary podocytes; 2 μM blebbistatin (milder myosin inhibition)
  effect on SLSs: insufficient to disrupt the SLSs at the cell periphery but sufficient to disrupt those in the centers of the cells
Primary podocytes; 10 μM blebbistatin, 2 hours, 6.0-kPa PAAm hydrogels and cover glass with Lam-521
  effect on SLSs: caused aggregation of synaptopodin in the center of the cells and increased sarcomeric spacing in SLSs that persisted at the cell periphery
Primary podocytes; 100 μM blebbistatin, 2 hours, 6.0-kPa PAAm hydrogels and cover glass with Lam-521
  effect on SLSs: nearly eliminated SLSs
Primary podocytes; podocytes on glass or patterned hydrogels (FIGS. 4D and E)
  disruption or loss of SLSs, concentration not given: disrupted the sarcomeric structures of SLSs in a way that depended on the dose, substrate stiffness, and position; also recorded: caused a marked loss of SLSs

## human laminin α5β2γ1 trimer [Lam-521]
[1]
  podocyte population of micropatterns: podocytes populated micropatterns coated with Lam-521
